Tested on: Mus musculus
Test: Acute toxicity in Swiss-Webster mouse at 1 g/kg, po
Assay type: organism-based
Conditions: in vivo, 1000 mg/kg

Row | Compound | Activity
1 | CC1=CC[C@@H]([C@@H](C)[C@H]2CC[C@@]3(C)[C@@H]4CC[C@H]5[C@](C)(C(=O)O)[C@@H](O[C@@H]6O[C@H](CO)[C@@H](O)[C@H](O)[C@H]6O)CC[C@@]56C[C@@]46CC[C@]23C)OC1=O [ABRUSOSIDE A] | Non-toxic
2 | COC(=O)[C@H]1O[C@@H](O[C@H]2[C@H](O[C@H]3CC[C@]45C[C@]46CC[C@]4(C)[C@@H]([C@H](C)[C@@H]7CC=C(C)C(=O)O7)CC[C@@]4(C)[C@@H]6CC[C@H]5[C@]3(C)C(=O)O)O[C@H](CO)[C@@H](O)[C@@H]2O)[C@H](O)[C@@H](O)[C@@H]1O [ABRUSOSIDE B] | Non-toxic
3 | CC1=CC[C@@H]([C@@H](C)[C@H]2CC[C@@]3(C)[C@@H]4CC[C@H]5[C@](C)(C(=O)O)[C@@H](O[C@@H]6O[C@H](CO)[C@@H](O)[C@H](O)[C@H]6O[C@@H]6O[C@H](CO)[C@@H](O)[C@H](O)[C@H]6O)CC[C@@]56C[C@@]46CC[C@]23C)OC1=O [ABRUSOSIDE C] | Non-toxic
4 | CC1=CC[C@@H]([C@@H](C)[C@H]2CC[C@@]3(C)[C@@H]4CC[C@H]5[C@](C)(C(=O)O)[C@@H](O[C@@H]6O[C@H](CO)[C@@H](O)[C@H](O)[C@H]6O[C@@H]6O[C@H](C(=O)O)[C@@H](O)[C@H](O)[C@H]6O)CC[C@@]56C[C@@]46CC[C@]23C)OC1=O [ABRUSOSIDE D] | Non-toxic
